Entries after “also recorded” stand apart in the source; their conditions may differ.
What was measured:
[1] = test system: Escherichia coli; conditions: earlier study, Ernst et al., 2000; cited from earlier work
[2] = test system: Mycobacterium tuberculosis; conditions: earlier study, Ernst et al., 2000; cited from earlier work
[3] = test system: Propionibacterium acnes strain ATCC 6919; test: CFU assay of antimicrobial activity against P. acnes; type: cell-based; conditions: for reduction of the number of viable P. acnes: 100 μM of peptide (FIG. 1B)
Procedure: CFU assay. The CFU assay was performed as described previously (Ernst et al., (2000) Immunol 165:7102-7108). Propionibacterium acnes strain ATCC 6919 (American Type Cell Culture, Manassas, Va.) was grown under anaerobic conditions in Reinforced Clostridial Medium (Oxoid, Basingstroke, England) for two days and collected in mid-log phase. The bacteria were washed three times with the assay buffer, 10 mM sodium phosphate, pH 7.2, supplemented with 0.03% trypticase soy broth (TSB, Becton-Dickinson, Cockeysville, Md.), and enumerated by applying a conversion factor of 7.5×10^7 bacteria/mL=1 OD unit at 600 nm. Various concentrations of granulysin or granulysin peptides were incubated with 3.75×10^5 bacteria in a final volume of 30 μL at 37° C. for four hours. […] Plates were incubated for four days at 37° C. under anaerobic conditions, then individual colonies were counted and the number of CFU per tube was calculated.

[4] = test system: MDC; test: Cytokine array, P. acnes-stimulated monocytes, MDC; type: cell-based, human
Procedure: (§1) Primary Human Monocyte Isolation and Stimulation. Peripheral human blood was drawn from normal healthy volunteers into heparinized tubes according to a protocol approved by the Institutional Review Board at UCLA. PBMCs were then isolated on Ficoll-Paque gradients (Pharmacia, Piscataway, N.J.) and plated (5×10^5/well) in 96-well plates for 2 hours in 1% FCS (Omega Scientific, Tarzana, Calif.). Non-adherent cells were removed by washing 3 times with RPMI media, leaving adherent cells. Adherent monocytes were cultured in 10% FCS with P. acnes sonicate, granulysin peptides, or P. acnes sonicate together with various concentrations of granulysin peptide for 24 hours at 37° C. Monocyte supernatants were harvested and assayed for IL-12p40 using cytokine-specific, commercially available antibody pairs in a standard sandwich ELISA (Biosource International, Camarillo, Calif., or BD PharMingen, San Diego, Calif.). […] The absorbance at 405 nm was read using a microtiter plate reader, and cytokine concentrations were calculated from a standard curve of recombinant cytokine (Biosource or Pharmingen). […]

[5] = test system: IL-12p40; test: IL-12p40 ELISA, P. acnes-stimulated primary human monocytes; type: cell-based; conditions: compared to peptides 1-20 and 16-35 (FIG. 5A)
Procedure: as §1

[6] = test system: P. acnes; test: Scanning and transmission electron microscopy of peptide-treated P. acnes; type: cell-based, Propionibacterium acnes; conditions: 1 hour to 72 hours of peptide treatment (FIG. 2B, 2C)
Procedure: Electron microscopy. P. acnes at a concentration of 2.08×10^7 bacteria/mL was suspended in 10 mM sodium phosphate buffer pH 7.2 supplemented with 0.03% TSB and incubated with […] granulysin peptides. Samples were then fixed for 30 minutes with 2% gluteraldehyde in 1×PBS, pH=7.35, room temperature, then washed three times and suspended in 1 mL 1×PBS. Scanning EM samples were filtered onto a micropore filter. The filters with the sample on top were dehydrated in graded ethanol; 50, 75, 95 and 100%-15 minutes in each, followed by similar transfers in hexa-methyl-disilazane reagent; 50, 75, 95%-30 minutes each followed by 100% hexa-methyl-disilazane reagent overnight. The scanning EM samples were gold coated and then viewed and photographed on a Cambridge Scanning electron microscope. Transmission EM samples were dehydrated in graded ethanol as above, embedded in Epon, and sectioned on Sorvall MT6000 (RMC, Tucson Ariz.). Thin sections ([…]) were stained with uranyl acetate, viewed and photographed on Jeol XC100 at 80-kV

[7] = test system: inflammatory cytokines and chemokines; test: P. acnes-stimulated production of cytokines and chemokines by monocytes; type: cell-based; conditions: primary human monocytes (FIG. 5)
Procedure: Primary Human Monocyte Isolation and Stimulation. Peripheral human blood was drawn from normal healthy volunteers into heparinized tubes according to a protocol approved by the Institutional Review Board at UCLA. PBMCs were then isolated on Ficoll-Paque gradients (Pharmacia, Piscataway, N.J.) and plated (5×10^5/well) in 96-well plates for 2 hours in 1% FCS (Omega Scientific, Tarzana, Calif.). Non-adherent cells were removed by washing 3 times with RPMI media, leaving adherent cells. Adherent monocytes were cultured in 10% FCS with P. acnes sonicate, granulysin peptides, or P. acnes sonicate together with various concentrations of granulysin peptide for 24 hours at 37° C. Monocyte supernatants were harvested and assayed for IL-12p40 using cytokine-specific, commercially available antibody pairs in a standard sandwich ELISA (Biosource International, Camarillo, Calif., or BD PharMingen, San Diego, Calif.). Capture antibodies were coated to 96-well EIA/RIA plates (Costar, Corning) and detection was achieved by incubating with biotinylated antibodies followed by Immunopure HRP-conjugated streptavidin (Pierce, Rockford, Ill.) and the ABTS Microwell Peroxidase Substrate System (Kirkegaard & Perry Laboratories, Gaithersburg, Md.). The absorbance at 405 nm was read using a microtiter plate reader, and cytokine concentrations were calculated from a standard curve of recombinant cytokine (Biosource or Pharmingen). Supernatants were assayed for other cytokines using Pierce SearchLight Multiplex Cytokine array services (Pierce Biotechnology, Woburn, Mass.).

[8] = test system: MCP-1; test: Cytokine array, P. acnes-stimulated monocytes, MCP-1; type: cell-based, human
Procedure: as §1

[9] = test system: IP-10; test: Cytokine array, P. acnes-stimulated monocytes, IP-10; type: cell-based, human
Procedure: as §1

Sequence | killing of Escherichia coli [1] | killing of Mycobacterium tuberculosis [2] | reduction of the number of viable P. acnes [3] [logs] | P. acnes-stimulated production of cytokines and chemokines [7] | other results
GRDYRTSLTIVQKLKKMVDKPTQRSVSNAATRVSR [1-35] | capable of killing | capable of killing | 2 |  | 
TRVSRTGRSRWRDWSRNFMR [31-50v44w] |  |  |  | inhibit | production of MDC [4]: inhibited; fewer bacteria as compared to incubation with peptide 31-50 ([3]; 32 μM of peptide (FIG. 2A)): 2-3 logs; P. acnes-stimulated production of IL-12p40 [5]: decreased; effect on P. acnes surface by scanning and transmission EM [6]: perturbs the surface integrity of P. acnes; production of MCP-1 [8]: inhibited; production of IP-10 [9]: inhibited
TRVSRTGRSRWRDWSRNFMR [D-31-50v44w] (all D-amino acids) |  |  |  | decreased; also recorded: inhibit | antimicrobial potency in vitro as compared to 31-50v44w (D versus L form) ([3]; P. acnes): even greater potency; kind of antimicrobial activity against P. acnes (bacteriostatic or bactericidal) ([3]; comparison with widely used antibiotics (FIG. 3C)): bactericidal
TRVSRTGRSRWRDVSRNFMR [31-50] | capable of killing | capable of killing | 4 | inhibit | 
TGRSRWRDVSRNFMRRYQSRVIQGLVAGETAQQIS [36-70] | capable of killing | capable of killing |  |  | 

Source: patent publication US8357365B2, “Granulysin peptides and methods of use thereof” (The Regents of the University of California, priority 2005, dated 2013)
